The source of these data is US20240324627A1, “USE OF A FEED ADDITIVE IN LOW ENERGY FEED FOR PIGS” (Alzchem Trostberg GmbH, priority 2021, published 2024).

In one assay the test system is fattening pigs. The assay can be described thus: 39-day feeding experiment in fattening pigs with low energy feed. It counts as in vivo. The source says:
In a 39-day feeding experiment, three different feed concepts were fed to fattening pigs with an initial weight of ˜65 kg. For each feeding concept, 80 pigs in 16 pens (5 animals per pen) were examined. The pens were exclusively occupied by animals of the same gender, i.e. females or non-castrated boars, in a 1:1 gender ratio. The three different feed groups were optimized for the content of metabolic energy (ME) and the other raw nutrients based on the supply recommendations of the NRC (National Research Council of the National Academies, 2012: Nutrient requirements of Swine/Committee on Nutrient Requirements of Swine, Board on Agriculture and Natural Resources, Division on Earth and Life Studies.-11th rev. ed. p. cm.). A positive control group with 13.0 MJ ME covering the energy requirements was compared with a negative control group with 12.8 MJ ME reduced by 0.2 MJ. In a guanidinoacetic acid group supplemented with 600 g/t, an energy content of 12.7 MJ ME was adjusted. The fattening phase lasted 39 days. On day 40, the animals that had already reached the slaughter weight of ˜108 kg were slaughtered. For this reason, data was recorded on this day. The rations were based on wheat, wheat semolina bran, rapeseed extraction meal and soy extraction meal. Animal fat was also added in relevant amounts. The diets were isonitrogenous, i.e. the supply of crude protein and digestible amino acids was identical in all three treatment groups. [table] Feed conversion is the amount of feed consumed that leads to a weight gain of the animal of one kilogram. Energy utilization is the energy intake per kilogram of weight gain.

The test system of the next assay is pigs. The following applies: Weber et al. 2017, cited from earlier work.
Where [1] appears, read: 600 g/t (0.06%) in 12.7 MJ ME/kg feed.

`N=C(N)NCC(=O)O` [guanidinoacetic acid, Guanidinoacetic acid]: in the assay on fattening pigs (setting [1]), the “Daily feed intake, day 1-39” value was 2223 g; the “Daily weight gain, day 1-39” value was 828 g; the “Energy utilization, day 1-39” value is 34.2 MJ ME/kg gain; the “Feed conversion, day 1-39” value is recorded as 2.69 kg feed/kg gain. In addition, the “Live weight, day 39” value in the assay with fattening pigs (setting [1]) is given as 96.2 kg. In addition, in the assay on fattening pigs (600 g/t in 12.7 MJ ME/kg feed), the Average slaughter weight was 107.3 kg and the “Daily weight gains in the fattening phase” value is on record as “approximately 830 g/d”. In the assay on fattening pigs (addition of 600 g/t, daily feed intake at level of positive control), this compound showed an Energy deficit compensated of 0.2 MJ ME. The “Improvement of feed conversion ratio compared to the negative control” value with fattening pigs (fattening phase, vs 12.8 MJ ME negative control) is 23 points. Moreover, in the assay with fattening pigs (fattening phase, vs 13.0 MJ ME positive control), the “Improvement of feed conversion ratio compared to the positive control” value was determined as 6 points. Moreover, in the assay with fattening pigs (fattening phase, vs negative control), the “Less energy required per kg gain vs negative control” value worked out at 4.3 MJ ME. For the same compound, in the assay with fattening pigs (fattening phase, vs positive control), the “Less energy required per kg gain vs positive control” value is on record as 2.1 MJ ME. Moreover, the “Average number of fattening days (from the start of the fattening phase)” value with fattening pigs (until slaughter, 600 g/t in 12.7 MJ ME/kg feed) turned out to be 52. Also, in the assay with fattening pigs (vs positive control), the Energy utilization improvement result is listed as “approximately 5.8%” and the Feed conversion improvement entry is on record as “approximately 2.2%”. In the assay on pigs (addition to high energy feed), the Feed uptake result is “slightly lower”. Besides, in the assay with pigs (common feed), the “Daily increase (weight gain)” value is listed as “only a slight daily increase at the threshold of significance” and the Feed conversion entry is “slight improvement”.
